Experimental data from US20090215774A1, “USES OF INDANE COMPOUNDS” (H. LUNDBECK A/S, priority 2008, published 2009).
Where two headings read alike, the source gives them in different places.

Key:
DAT Dopamine Transporter = molecular target: T1, DAT Dopamine Transporter (Rattus norvegicus, UniProt P23977); assay: Measurements of [3H]dopamine uptake into rat cortical synaptosomes; format: biochemical
T1 construct: male wistar rats (125-250 g) are sacrificed by decapitation and striatum quickly dissected out; from tissue; host or cells: rat striatum, P2 fraction
Protocol: Measurements of [^3H]Dopamine Uptake Into Rat Cortical Synaptosomes
The tissue is gently homogenised (glass teflon homogeniser) and the P2 fraction is obtained by centrifugation (1000 g, 10 minutes and 40000 g, 20 minutes, 4° C.) and suspended in 560 volumes of a modified Krebs-Ringer-phosphate buffer, pH 7.4.
Tissue 0.25 mg/well (140 μl) (original tissue) is mixed with test suspension. […] Final volume is 0.2 mL. The incubation is terminated by filtering the samples under vacuum through Whatman GF/C filters with a wash of 1×0.2 ml buffer. The filters are dried and appropriate scintillation fluid (Optiphase Supermix) is added. After storage for 2 hours in the dark the content of radioactivity is determined by liquid scintillation counting. Uptake is obtained by subtracting the non-specific binding and passive transport measured in the presence of 100 μM of benztropin. For determination of the inhibition of uptake ten concentrations of drugs covering 6 decades are used.
^3H-DA=3,4-(ring-2,5,6-^3H)dopamine hydrochloride from New England Nuclear, specific activity 30-50 Ci/mmol.

[1] = molecular target: T2, 5-HTT Serotonin Transporter (Rattus norvegicus, UniProt P31652); assay: Measurements of [3H]-5-HT uptake into rat cortical synaptosomes; format: biochemical
T2 construct: Whole brains from male Wistar rats (125-225 g), excluding cerebellum, are homogenized; from tissue; host or cells: rat whole brain excluding cerebellum, synaptosomal (P2) pellet
Protocol: Measurements of [^3H]-5-HT Uptake Into Rat Cortical Synaptosomes
The homogenate is centrifuged at 1000×g for 10 rain at 4° C. The pellet is discarded and the supernatant is centrifuged at 40.000×g for 20 min. The final pellet is homogenized in assay buffer (0.5 mg original tissue/well). Test compounds (or buffer) and 10 nM [^3H]-5-HT are added to 96 well plates. […] The incubation is started by adding tissue to a final assay volume of 0.2 mL. After 15 min incubation with radioligand at 37° C., samples are filtered directly on Unifilter GF/C glass fiber filters (soaked for 30 min in 0.1% polyethylenimine) under vacuum and immediately washed with 1×0.2 ml assay buffer. Non-specific uptake is determined using citalopram (10 μM final concentration). Citalopram is included as reference in all experiments as dose-response curve.

[2] = molecular target: NAT Noradrenergic Transporter (Rattus norvegicus, UniProt Q9WTR4); assay: Measurements of [3H]noradrenaline uptake into rat cortical synaptosomes; format: biochemical
Protocol: Measurements of [^3H]Noradrenaline Uptake Into Rat Cortical Synaptosomes
The homogenate is centrifuged at 1000×g for 10 min at 4° C. The pellet is discarded and the supernatant is centrifuged at 40.000×g for 20 min. […] Pellet is suspended in 140 volumes of assaybuffer. Tissue is mixed with test compounds and after 10 min pre-incubation, 10 nM [^3H]-noradrenaline is added to a final volume of 0.2 ml and the mixture is incubated for 15 min at 37° C. After 15 min incubation, samples are filtered directly on Unifilter GF/C glass fiber filters (soaked for 30 min in 0.1% polyethylenimine) under vacuum and immediately washed with 1×0.2 mL assay buffer. Non-specific uptake is determined using talsupram (10 μM final concentration). Duloxetine is included as reference in all experiments as dose-response curve.

[3] = 24 weeks' treatment, patients, cited from earlier work

T1 sequence (P23977 whole entry): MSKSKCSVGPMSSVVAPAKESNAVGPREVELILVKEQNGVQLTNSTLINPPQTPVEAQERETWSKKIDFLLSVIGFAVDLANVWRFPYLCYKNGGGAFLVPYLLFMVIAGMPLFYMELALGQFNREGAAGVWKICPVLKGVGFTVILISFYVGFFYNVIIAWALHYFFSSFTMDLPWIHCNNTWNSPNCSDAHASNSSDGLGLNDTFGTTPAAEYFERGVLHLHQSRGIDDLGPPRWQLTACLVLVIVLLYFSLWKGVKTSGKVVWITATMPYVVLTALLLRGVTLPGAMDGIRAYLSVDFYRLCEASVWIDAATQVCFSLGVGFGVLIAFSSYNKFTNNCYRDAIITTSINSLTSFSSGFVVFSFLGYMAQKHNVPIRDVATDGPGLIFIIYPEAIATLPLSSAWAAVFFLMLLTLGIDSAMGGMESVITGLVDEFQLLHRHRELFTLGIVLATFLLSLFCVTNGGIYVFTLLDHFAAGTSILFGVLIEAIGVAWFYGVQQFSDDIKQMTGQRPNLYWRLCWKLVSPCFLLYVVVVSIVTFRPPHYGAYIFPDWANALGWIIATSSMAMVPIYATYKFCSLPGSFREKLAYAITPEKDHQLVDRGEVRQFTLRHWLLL
T2 sequence (P31652 whole entry): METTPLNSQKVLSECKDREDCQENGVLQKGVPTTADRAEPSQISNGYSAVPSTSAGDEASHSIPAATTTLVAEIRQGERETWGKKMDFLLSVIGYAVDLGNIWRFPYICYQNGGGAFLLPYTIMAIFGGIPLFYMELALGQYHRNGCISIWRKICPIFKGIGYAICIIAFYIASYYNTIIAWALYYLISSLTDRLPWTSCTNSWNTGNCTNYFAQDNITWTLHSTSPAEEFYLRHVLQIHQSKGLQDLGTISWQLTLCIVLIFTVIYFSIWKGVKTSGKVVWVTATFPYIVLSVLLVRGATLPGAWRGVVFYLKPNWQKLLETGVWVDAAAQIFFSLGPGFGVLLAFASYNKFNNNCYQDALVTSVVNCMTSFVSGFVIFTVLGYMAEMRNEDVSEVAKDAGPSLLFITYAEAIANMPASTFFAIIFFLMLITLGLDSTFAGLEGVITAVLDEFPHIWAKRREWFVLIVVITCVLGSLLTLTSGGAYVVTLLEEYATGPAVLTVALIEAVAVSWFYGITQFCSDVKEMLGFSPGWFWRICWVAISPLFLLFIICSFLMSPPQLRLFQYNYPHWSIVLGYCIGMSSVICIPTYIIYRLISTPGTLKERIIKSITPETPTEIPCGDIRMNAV
Sequence of NAT Noradrenergic Transporter (Q9WTR4 6-550 limits assumed): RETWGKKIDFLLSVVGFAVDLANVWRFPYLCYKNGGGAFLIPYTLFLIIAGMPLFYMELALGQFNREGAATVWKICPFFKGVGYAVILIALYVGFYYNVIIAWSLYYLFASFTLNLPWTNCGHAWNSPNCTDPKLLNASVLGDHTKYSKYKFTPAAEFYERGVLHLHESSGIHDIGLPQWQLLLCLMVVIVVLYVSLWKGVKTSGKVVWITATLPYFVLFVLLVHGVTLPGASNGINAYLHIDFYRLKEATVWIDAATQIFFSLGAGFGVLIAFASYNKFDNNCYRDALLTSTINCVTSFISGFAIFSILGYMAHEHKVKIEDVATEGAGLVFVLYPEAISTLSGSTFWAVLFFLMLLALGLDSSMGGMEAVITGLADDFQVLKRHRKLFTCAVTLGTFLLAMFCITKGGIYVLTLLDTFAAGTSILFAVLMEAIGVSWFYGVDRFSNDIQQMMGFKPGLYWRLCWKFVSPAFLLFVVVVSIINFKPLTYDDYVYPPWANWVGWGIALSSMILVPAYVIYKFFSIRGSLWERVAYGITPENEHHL

| SMILES | IC50 (DAT Dopamine Transporter) [nM] | IC50 [1] [nM] | IC50 [2] [nM] | average weight loss ([3]; 0.25 mg) [%] | average weight loss ([3]; 0.5 mg) [%] | average weight loss ([3]; 1 mg) [%] |
| --- | --- | --- | --- | --- | --- | --- |
| CN[C@@H]1C[C@@H](c2c[nH]c3cc(OC)ccc23)c2ccccc21 [Formula X] | 0.1 to 200 | 0.1 to 200 | 0.1 to 200 |  |  |  |
| CN[C@@H]1C[C@@H](c2c[nH]c3ccccc23)c2ccccc21 [Formula IX] | 0.1 to 200 | 0.1 to 200 | 0.1 to 200 |  |  |  |
| CN[C@@H]1C[C@H](c2c[nH]c3c(F)cccc23)c2ccccc21 [Formula VI] | 0.1 to 200 | 0.1 to 200 | 0.1 to 200 |  |  |  |
| CCOC[C@@H]1[C@@H](c2ccc(Cl)c(Cl)c2)C[C@@H]2CC[C@H]1N2C [Tesofensine] |  |  |  | 6.5 | 11.2 | 12.6 |
| CN[C@@H]1C[C@@H](c2c[nH]c3ccc(Cl)cc23)c2ccccc21 [Formula VIII] | 0.1 to 200 | 0.1 to 200 | 0.1 to 200 |  |  |  |
| CN[C@H]1C[C@@H](c2c[nH]c3c(F)cccc23)c2ccccc21 [Formula VII] | 0.1 to 200 | 0.1 to 200 | 0.1 to 200 |  |  |  |
